# In US20070244146A1, “Thienopyridines as IKK inhibitors” (priority 2004, published 2007):
# Target: T1, recombinant human IKKb (Homo sapiens, UniProt O14920)
# T1 sequence (O14920 1-756): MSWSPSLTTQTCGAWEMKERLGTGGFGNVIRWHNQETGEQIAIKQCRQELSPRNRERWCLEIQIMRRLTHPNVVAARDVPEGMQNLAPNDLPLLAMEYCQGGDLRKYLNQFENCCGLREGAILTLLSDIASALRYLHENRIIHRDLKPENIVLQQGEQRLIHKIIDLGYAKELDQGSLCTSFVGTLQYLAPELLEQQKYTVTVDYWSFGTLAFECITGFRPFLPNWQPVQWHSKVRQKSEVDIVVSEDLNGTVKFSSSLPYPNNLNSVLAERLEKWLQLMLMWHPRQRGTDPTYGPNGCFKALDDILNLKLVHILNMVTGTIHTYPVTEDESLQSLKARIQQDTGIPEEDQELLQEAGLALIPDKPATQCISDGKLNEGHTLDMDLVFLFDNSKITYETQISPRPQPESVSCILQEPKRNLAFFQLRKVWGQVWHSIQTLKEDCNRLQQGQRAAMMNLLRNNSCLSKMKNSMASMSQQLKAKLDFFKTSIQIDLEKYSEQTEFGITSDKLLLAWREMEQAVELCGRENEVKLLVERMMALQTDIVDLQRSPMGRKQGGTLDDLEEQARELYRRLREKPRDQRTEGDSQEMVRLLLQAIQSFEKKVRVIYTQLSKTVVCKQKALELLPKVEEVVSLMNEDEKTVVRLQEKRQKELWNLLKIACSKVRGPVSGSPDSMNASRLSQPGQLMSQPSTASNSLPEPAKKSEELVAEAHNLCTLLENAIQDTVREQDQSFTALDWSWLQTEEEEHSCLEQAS
# Experiment: IKK kinase assay: incorporation of radiolabeled ATP into biotin-peptide substrate derived from IkB-alpha
# Format: biochemical
# Details: purified recombinant human IKKb 25 nM, ATP 10 μM, 30 min at 30° C.
# Experimental: This example describes an assay that is useful in evaluating and selecting a compound that modulates IKK. The assay measures the incorporation of radiolabeled ^3P gATP into the Biotin-peptide kinase substrate, derived from the IkB-alpha sequence.
# In a 40 ul volume, 26 ul of ADB diluted, purified recombinant human IKKb [25 nM] was mixed with 4 ul 10× concentration of test compounds, [usually 100 uM-0.003 uM], [10%] DMSO and incubated for 10 minutes at room temperature. The kinase reaction was initiated by the addition of 10 ul 4× substrate cocktail containing the peptide substrate [0 or 30 μM] ATP [10 μM], and ^3PgATP [2 uCi/r×n]. After 30 minutes of incubation at 30° C., the reaction was terminated by the transfer of 25 ul reaction sample to a phosphocellulose membrane/plate containing 150 ul 0.75% phosphoric acid.
# On the following day, the free radionucleotides in the phosphocellulose membrane were washed under vacuum with 3×200 ul of 0.75% phosphoric acid. After the last wash membrane/plates were transferred to an adoptor plate and 70 ul of scintillation cocktail was added to each well. After four hours, the amount of radioactivity for each well was counted in a top counter.
smiles,measurement,value
"N#Cc1cccc(-c2cc3c(N)ncc(C(N)=O)c3s2)c1 [Compound 12, 4-Amino-2-(3-cyano-phenyl)-thieno[3,2-c]pyridine-7-carboxylic acid amide]",IC50,< 1000 nM
